# US20100249125A1, “INHIBITION OF PROSTGLANDIN E2 RECEPTORS FOR THE TREATMENT OF ENDOMETRIOSIS” (THE TEXAS A&M UNIVERSITY SYSTEM, priority 2009, published 2010)
# “Also recorded” adds a separate entry of the source. Read-outs that look alike come from different tables or passages of the source.
# Columns and labels:
# [1] = tested on: human endometriotic stromal cells 22B; assay: Cell viability assay (WST-1); type: cell-based; conditions: 22B cells; AH6809 75 μM, AH23848 50 μM, alone or combined; vs control
# Protocol: (§1) Cell Viability Assay: The 12Z and 22B cells (1.25×10^4 cells/well) were cultured in DMEM/F12 with 10% FBS in 96-well plates and treated as described previously. At the end of the experiments the cell viability (metabolic activity) was determined using a cell proliferation assay kit WST-1 according to the manufacturer's (Roche Applied Sciences) instructions. Metabolic activity recorded in control cells was considered as 100%. Data were expressed as mean±SEM of three independent experiments conducted in triplicate.
# [2] = tested on: human endometriotic epithelial cells 12Z; assay: Cell viability assay (WST-1); type: cell-based; conditions: 12Z cells; AH6809 75 μM, AH23848 50 μM, alone or combined; vs control
# Protocol: as §1
# [3] = tested on: human endometriotic stromal cells 22B; assay: Cell proliferation assay (Coulter counter); type: cell-based; conditions: 22B cells; 0-200 concentration series
# Protocol: (§2) EP2/EP4 small interfering RNA (siRNA): 12Z and 22B cells (3.0×10^5/well) were cultured in antibiotic-free DMEM/F12 with 10% FBS in six-well tissue culture plates. At 70-80% confluency, cells were used for EP2, EP4 or EP2/EP4 knock-down experiments using SMART-pool siRNA duplex delivered by DharmaFect-1 as described previously (11) and per manufacturer's instructions (Dharmacon Inc, Lafayette, Colo.). As an internal control, MOCK siRNA was used. According to the manufacturer's instructions, SMARTpool siRNA were consisted of at least four individual siRNA duplexes targeted against a specific gene and designed using a bioinformatics technology known as SMARTselection. […] The inventors used SMARTpool siRNA in order to use more than one siRNA duplex from different regions of the gene of interest to avoid non-specific indirect effects of single siRNA duplex to a single region of the target gene. Briefly, siRNA duplexes (100 nM/well) and DharmaFect-1 (3 μl/well) were diluted in 50 μl antibiotic and serum-free DMEM/F12 medium separately and mixed gently and incubated for 5 min at room temperature. Afterwards, EP2, EP4 or EP2/EP4 siRNA and DharmaFect-1 were mixed (total volume 100 μl) and incubated at room temperature for 20 min. Then, 100 μl siRNA: DharmaFect-1 complex was diluted with 2 ml antibiotic-free media with 10% FBS and added to the well. After 24 h, the medium was replaced with fresh DMEM/F12 with 10% FBS and incubated for 24 h. Fluorescence labeled siGLO RISC-free siRNA was transfected separately and transfection efficiency was estimated using a fluorescence microscope. Transfection efficiency more than 80% was considered as optimal conditions for further experiments. Efficiency of siRNA on silencing of EP2 and EP4 genes and proteins was assessed by RT-PCR and western blot, respectively 72 h post-transfection knock-down efficiency was 70-80% in both 12Z and 22B cells.
# (§3) Cell Proliferation Assay: The 12Z and 22B cells (1×10^5/well) were cultured in DMEM/F12 with 10% FBS in six-well plates. At 70%-80% confluency the cells were cultured in DMEM/F12 with 2% dextran charcoal-treated FBS and treated with inhibitors for EP1 (SC19220; […]), EP2 (AH6809; […]), EP4 (AH23848; […]), or a combination of EP2 (AH6809; […]) and EP4 (AH23848; […]) for 36 hours. The concentrations for each inhibitor was determined by dose-response studies using […] and an optimal concentration was selected based on its effects on proliferation of human endometriotic cells (FIGS. 6A-6B). These inhibitors competitively bind with respective receptors and inhibit their functions (40-42). For the siRNA study, 24 hours after transfection of siRNA the medium was replaced and the cells were cultured in 2% dextran charcoal-treated FBS, which was considered as time 0 hour, and cell proliferation was estimated at 36 hours. The number of cells was counted using a Coulter counter (11) and considered as 100% present in control. Data were expressed as mean±SEM of three independent studies conducted in duplicate.
# [4] = tested on: human endometriotic epithelial cells 12Z; assay: Cell proliferation assay (Coulter counter); type: cell-based; conditions: 12Z cells; 0-200 concentration series
# Protocol: as §2, §3
# [5] = tested on: human endometriotic stromal cells 22B; assay: TUNEL apoptosis assay (flow cytometry, fluorescence microscopy); type: cell-based; conditions: 22B cells, 24 h; for Induced apoptosis (TUNEL, flow cytometry): AH6809 75 μM, AH23848 50 μM, alone or combined
# Protocol: (§4) These well-characterized 12Z and 22B cells were cultured in DMEM/F12 without special steroid treatment containing 10% fetal bovine serum (FBS) and penicillin (100 U/ml), streptomycin (100 μg/ml) and amphotericin-B 2.5 μg/ml in a humidified 5% CO2 and 95% air at 37° C. as we described previously (11, 39). At 70-80% confluency the cells were cultured in DMEM/F12 with 2% dextran-charcoal-treated fetal bovine serum (DC-FBS) and treated with EP inhibitors (EP-I) for EP1 (SC19220-100 100 μM), EP2 (AH6809-75 μM) and/or EP4 (AH23848-50 μM) for 24 h.
# as §2
# (§5) Terminal deoxynucleotide transferase dUTP nick end labeling (TUNEL) assay: Non-adherent and adherent cells were harvested, mixed together, and resuspended at the concentrations of 1×10^6 cells/ml. Nicks in the DNA were determined by terminal deoxynucleotidyl transferase (TdT) and 5-bromo-2′-deoxyuridine 5′-triphosphate (BrdUTP) labeling using APO-BrdU TUNEL Assay Kit. Detection of BrdU incorporation at DNA break sites was achieved through Alexa Fluor 488 dye-labeled anti-BrdU antibody. The staining procedures were performed as recommended by manufacturers. Numbers of apoptotic cells were analyzed by a flowcytometer (FACSCaliber, Becton Dickinson, San Jose, Calif.) using Cell Quest software. In addition, the presence of TUNEL labeled DNA fragments were determined by fluorescence microscopy. Digital images were captured using a Zeiss Axioplan 2 Research Microscope with an Axiocam HR digital camera.
# [6] = tested on: human endometriotic epithelial cells 12Z; assay: as above; type: cell-based; conditions: 12Z cells, 24 h; for Induced apoptosis (TUNEL, flow cytometry): AH6809 75 μM, AH23848 50 μM, alone or combined
# Protocol: as §4, §2, §5
# [7] = Cell viability assay (WST-1); type: cell-based, human; conditions: human, AH6809 75 μM, AH23848 50 μM, alone or combined, vs control, read-out: Decrease of cell viability
# Protocol: as §1
# endometriotic implant = conditions: hamster model; through caspase-3 dependent apoptosis; cited from earlier work
# [8] = tested on: human immortalized endometriotic epithelial cells 12Z and stromal cells 22B; conditions: associated with decreased PGE2 production; cited from earlier work
# estrogen receptor = conditions: treatment of endometriosis in women; cited from earlier work
# [9] = tested on: COX-2 along with p450 aromatase; conditions: 3.75 mg, for 1 month; eutopic endometria; cited from earlier work
# endometriotic lesions = conditions: nude mice model; cited from earlier work
# [10] = 25 mg/d for 6 months, women with endometriosis; cited from earlier work
structure (smiles),measurement,setting,value
"O=C(O)CC/C=C\CC[C@H]1[C@H](N2CCOCC2)C(=O)C[C@H]1OCc1ccc(-c2ccccc2)cc1 (relative stereo) [AH23848, (4Z)-7-[(rel-1S,2S,5R)-5-((1,1′-Biphenyl-4-yl)methoxy)-2-(4-morpholinyl)-3-oxocyclopentyl]-4-heptenoic acid]",Decrease of cell viability,[1],~45%
same,Decrease of cell viability,[2],~55%
same,"Proliferation, dose response experiment",[3],decreased (P<0.05) proliferation
same,"Proliferation, dose response experiment",[4],decreased (P<0.05) proliferation
same,"Induced apoptosis (TUNEL, flow cytometry)",[5],~45%
same,"Induced apoptosis (TUNEL, flow cytometry)",[6],~55%
"CC(C)Oc1ccc2c(=O)c3cc(C(=O)O)ccc3oc2c1 [AH6809, 6-Isopropoxy-9-oxoxanthene-2-carboxylic acid]",cytotoxicity at 75 μM,"[7]; 12Z endometriotic epithelial cells, 12Z cells",~55%
same,cytotoxicity at 75 μM,"[7]; 22B endometriotic stromal cells, 22B cells",~45%
same,"Proliferation, dose response experiment",[3],decreased (P<0.05) proliferation
same,"Proliferation, dose response experiment",[4],decreased (P<0.05) proliferation
same,"Induced apoptosis (TUNEL, flow cytometry)",[5],~45%
same,"Induced apoptosis (TUNEL, flow cytometry)",[6],~55%
CS(=O)(=O)Nc1ccc([N+](=O)[O-])cc1OC1CCCCC1 [NS-398],Regression of endometriotic implant,endometriotic implant,induced regression of endometriotic implant
same,"Survival, migration and invasion",[8],"prevents survival, migration, and invasion; also recorded: prevents survival, migration and invasion"
CC(=O)NNC(=O)N1Cc2ccccc2Oc2ccc(Cl)cc21 [SC19220],"Proliferation, dose response experiment",[3],did not decrease proliferation
same,"Proliferation, dose response experiment",[4],did not decrease proliferation
same,Induction of apoptosis (TUNEL),[5]; SC19220 100 μM,did not induce apoptosis
same,Induction of apoptosis (TUNEL),[6]; SC19220 100 μM,did not induce apoptosis
C[C@]12CC[C@@H]3c4ccc(O)cc4C[C@@H](CCCCCCCCC[S+]([O-])CCCC(F)(F)C(F)(F)F)[C@H]3[C@@H]1CC[C@@H]2O (some centres unmarked) [fulvestrant],Outcome of clinical trial,estrogen receptor,discontinued due to unfavorable outcomes
CCNC(=O)[C@@H]1CCCN1C(=O)[C@H](CCCNC(=N)N)NC(=O)[C@H](CC(C)C)NC(=O)[C@@H](CC(C)C)NC(=O)[C@H](Cc1ccc(O)cc1)NC(=O)[C@H](CO)NC(=O)[C@H](Cc1c[nH]c2ccccc12)NC(=O)[C@H](Cc1c[nH]cn1)NC(=O)[C@@H]1CCC(=O)N1 [leuprolide acetate],Expression of COX-2 and p450 aromatase,[9],decreased expression of COX-2 along with p450 aromatase
CS(=O)(=O)Nc1ccc([N+](=O)[O-])cc1Oc1ccccc1 [nimesulide],Number and size of endometriotic lesions,endometriotic lesions,failed to decrease number and size of endometriotic lesions
O=C(c1ccc(OCCN2CCCCC2)cc1)c1c(-c2ccc(O)cc2)sc2cc(O)ccc12 [raloxifene],Outcome of clinical trial,estrogen receptor,discontinued due to unfavorable outcomes
CS(=O)(=O)c1ccc(C2=C(c3ccccc3)C(=O)OC2)cc1 [rofecoxib],Pelvic pain symptoms,[10],effectively suppressed the pelvic pain symptoms
